Patent US20240287007A1, “N-(1,3,4-OXADIAZOL-2-YL)PHENYLCARBOXAMIDES AS HERBICIDES” (BAYER AKTIENGESELLSCHAFT, priority 2021, published 2024)

Legend:
Type in all cases: in vivo
[1] = test system: ABUTH (Abutylon threophrasti); assay: Post-emergence herbicidal action against ABUTH; details: visual assessment after about 3 weeks
Description: (§1) Seeds of monocotyledonous and dicotyledonous weed and crop plants are laid out in sandy loam soil in wood-fiber pots, covered with soil and cultivated in a greenhouse under good growth conditions. 2 to 3 weeks after sowing, the trial plants are treated at the one-leaf stage. The compounds of the invention, formulated in the form of wettable powders (WP) or as emulsion concentrates (EC), are then sprayed onto the green parts of the plants as aqueous suspension or emulsion at a water application rate equating to 600 to 800 l/ha with addition of 0.2% wetting agent. After the test plants have been left to stand in the greenhouse under optimal growth conditions for about 3 weeks, the action of the preparations is assessed visually in comparison to untreated controls (herbicidal action in percent (%): 100% activity=the plants have died, 0% activity=like control plants).

[2] = test system: AMARE (Amaranthus retroflexus); assay: Post-emergence herbicidal action against AMARE; details: visual assessment after about 3 weeks
Description: as §1

[3] = test system: DIGSA (Digitaria sanguinalis); assay: Post-emergence herbicidal action against DIGSA; details: visual assessment after about 3 weeks
Description: as §1

[4] = test system: SETVI (Setaria viridis); assay: Post-emergence herbicidal action against SETVI; details: visual assessment after about 3 weeks
Description: as §1

[5] = test system: VIOTR (Viola tricolor); assay: Post-emergence herbicidal action against VIOTR; details: visual assessment after about 3 weeks
Description: as §1

[6] = test system: KCHSC (Kochia scoparia); assay: Post-emergence herbicidal action against KCHSC; details: visual assessment after about 3 weeks
Description: as §1

[7] = test system: ABUTH (Abutylon threophrasti); assay: Pre-emergence herbicidal effect against ABUTH; details: scored visually after 3 weeks
Text: (§2) Seeds of monocotyledonous and dicotyledonous weed plants and crop plants are laid out in sandy loam soil in wood-fiber pots and covered with soil. The compounds of the invention, formulated in the form of wettable powders (WP) or as emulsion concentrates (EC), are then applied to the surface of the covering soil as aqueous suspension or emulsion at a water application rate equating to 600 to 800 l/ha with addition of 0.2% wetting agent. After the treatment, the pots are placed in a greenhouse and kept under good growth conditions for the trial plants. The damage to the test plants is scored visually after a test period of 3 weeks by comparison with untreated controls (herbicidal activity in percent (%): 100% activity=the plants have died, 0% activity=like control plants).

[8] = test system: AMARE (Amaranthus retroflexus); assay: Pre-emergence herbicidal effect against AMARE; details: scored visually after 3 weeks
Text: as §2

[9] = test system: DIGSA (Digitaria sanguinalis); assay: Pre-emergence herbicidal effect against DIGSA; details: scored visually after 3 weeks
Text: as §2

[10] = test system: ECHCG (Echinochloa crus-galli); assay: Pre-emergence herbicidal effect against ECHCG; details: scored visually after 3 weeks
Text: as §2

[11] = test system: POLCO (Polygonum convolvulus); assay: Pre-emergence herbicidal effect against POLCO; details: scored visually after 3 weeks
Text: as §2

[12] = test system: SETVI (Setaria viridis); assay: Pre-emergence herbicidal effect against SETVI; details: scored visually after 3 weeks
Text: as §2

[13] = test system: VIOTR (Viola tricolor); assay: Pre-emergence herbicidal effect against VIOTR; details: scored visually after 3 weeks
Text: as §2

[14] = test system: KCHSC (Kochia scoparia); assay: Pre-emergence herbicidal effect against KCHSC; details: scored visually after 3 weeks
Text: as §2

[15] = test system: MATIN (Matricaria inodora); assay: Post-emergence herbicidal action against MATIN; details: visual assessment after about 3 weeks
Description: as §1

[16] = test system: PHBPU (Pharbitis purpurea); assay: Post-emergence herbicidal action against PHBPU; details: visual assessment after about 3 weeks
Description: as §1

[17] = test system: VERPE (Veronica persica); assay: Post-emergence herbicidal action against VERPE; details: visual assessment after about 3 weeks
Description: as §1

[18] = test system: LOLRI (Lolium rigidum); assay: Post-emergence herbicidal action against LOLRI; details: visual assessment after about 3 weeks
Description: as §1

[19] = test system: POLCO (Polygonum convolvulus); assay: Post-emergence herbicidal action against POLCO; details: visual assessment after about 3 weeks
Description: as §1

[20] = test system: ALOMY (Alopecurus myosuroides); assay: Pre-emergence herbicidal effect against ALOMY; details: 80 g/ha, scored visually after 3 weeks
Text: as §2

[21] = test system: AVEFA (Avena fatua); assay: Pre-emergence herbicidal effect against AVEFA; details: scored visually after 3 weeks
Text: as §2

[22] = test system: LOLRI (Lolium rigidum); assay: Pre-emergence herbicidal effect against LOLRI; details: scored visually after 3 weeks
Text: as §2

[23] = test system: MATIN (Matricaria inodora); assay: Pre-emergence herbicidal effect against MATIN; details: scored visually after 3 weeks
Text: as §2

[24] = test system: PHBPU (Pharbitis purpurea); assay: Pre-emergence herbicidal effect against PHBPU; details: scored visually after 3 weeks
Text: as §2

[25] = test system: VERPE (Veronica persica); assay: Pre-emergence herbicidal effect against VERPE; details: 80 g/ha, scored visually after 3 weeks
Text: as §2

## CSc1c(OC(F)F)ccc(C(=O)Nc2nnco2)c1Cl [Example 1-21, 2-chloro-4-(difluoromethoxy)-3-(methylsulfanyl)-N-(1,3,4-oxadiazol-2-yl)benzamide]
[1]
  Post-emergence effect at 80 g/ha against ABUTH in %: 80%
[2]
  Post-emergence effect at 20 g/ha against AMARE in %: 100%
  Post-emergence effect at 80 g/ha against AMARE in %: 100%
[3]
  Post-emergence effect at 20 g/ha against DIGSA in %: 90%
  Post-emergence effect at 80 g/ha against DIGSA in %: 90%
[4]
  Post-emergence effect at 20 g/ha against SETVI in %: 80%
  Post-emergence effect at 80 g/ha against SETVI in %: 100%
[5]
  Post-emergence effect at 20 g/ha against VIOTR in %: 100%
  Post-emergence effect at 80 g/ha against VIOTR in %: 100%
[6]
  Post-emergence effect at 20 g/ha against KCHSC in %: 90%
  Post-emergence effect at 80 g/ha against KCHSC in %: 100%
[7]
  Pre-emergence effect at 80 g/ha against ABUTH in %: 100%
[8]
  Pre-emergence effect at 20 g/ha against AMARE in %: 90%
  Pre-emergence effect at 80 g/ha against AMARE in %: 100%
[9]
  Pre-emergence effect at 20 g/ha against DIGSA in %: 90%
  Pre-emergence effect at 80 g/ha against DIGSA in %: 100%
[10]
  Pre-emergence effect at 80 g/ha against ECHCG in %: 100%
[11]
  Pre-emergence effect at 80 g/ha against POLCO in %: 100%
[12]
  Pre-emergence effect at 80 g/ha against SETVI in %: 90%
[13]
  Pre-emergence effect at 20 g/ha against VIOTR in %: 100%
  Pre-emergence effect at 80 g/ha against VIOTR in %: 100%
[14]
  Pre-emergence effect at 20 g/ha against KCHSC in %: 90%
  Pre-emergence effect at 80 g/ha against KCHSC in %: 90%

## CSc1c(OC(F)(F)F)ccc(C(=O)Nc2nnco2)c1Cl [Example 1-31, 2-chloro-3-(methylsulfanyl)-N-(1,3,4-oxadiazol-2-yl)-4-(trifluoromethoxy)benzamide]
[1]
  Post-emergence effect at 80 g/ha against ABUTH in %: 90%
[2]
  Post-emergence effect at 20 g/ha against AMARE in %: 100%
  Post-emergence effect at 80 g/ha against AMARE in %: 100%
[3]
  Post-emergence effect at 20 g/ha against DIGSA in %: 90%
  Post-emergence effect at 80 g/ha against DIGSA in %: 90%
[15]
  Post-emergence effect at 20 g/ha against MATIN in %: 80%
  Post-emergence effect at 80 g/ha against MATIN in %: 90%
[16]
  Post-emergence effect at 20 g/ha against PHBPU in %: 90%
  Post-emergence effect at 80 g/ha against PHBPU in %: 90%
[4]
  Post-emergence effect at 20 g/ha against SETVI in %: 80%
  Post-emergence effect at 80 g/ha against SETVI in %: 90%
[17]
  Post-emergence effect at 80 g/ha against VERPE in %: 80%
[5]
  Post-emergence effect at 20 g/ha against VIOTR in %: 90%
  Post-emergence effect at 80 g/ha against VIOTR in %: 100%
[6]
  Post-emergence effect at 20 g/ha against KCHSC in %: 100%
  Post-emergence effect at 80 g/ha against KCHSC in %: 100%
[7]
  Pre-emergence effect at 20 g/ha against ABUTH in %: 90%
  Pre-emergence effect at 80 g/ha against ABUTH in %: 100%
[8]
  Pre-emergence effect at 80 g/ha against AMARE in %: 100%
[9]
  Pre-emergence effect at 20 g/ha against DIGSA in %: 90%
  Pre-emergence effect at 80 g/ha against DIGSA in %: 100%
[10]
  Pre-emergence effect at 80 g/ha against ECHCG in %: 100%
[12]
  Pre-emergence effect at 80 g/ha against SETVI in %: 100%
[13]
  Pre-emergence effect at 20 g/ha against VIOTR in %: 90%
  Pre-emergence effect at 80 g/ha against VIOTR in %: 90%
[14]
  Pre-emergence effect at 20 g/ha against KCHSC in %: 90%
  Pre-emergence effect at 80 g/ha against KCHSC in %: 100%

## CS(=O)(=O)c1c(OC(F)(F)F)ccc(C(=O)Nc2nnco2)c1Cl [Example 1-35, 2-chloro-3-(methylsulfonyl)-N-(1,3,4-oxadiazol-2-yl)-4-(trifluoromethoxy)benzamide]
[1]; 20 g/ha
  Post-emergence effect at 20 g/ha against ABUTH in %: 80%
[1]
  Post-emergence effect at 80 g/ha against ABUTH in %: 90%
[2]
  Post-emergence effect at 20 g/ha against AMARE in %: 90%
  Post-emergence effect at 80 g/ha against AMARE in %: 90%
[3]
  Post-emergence effect at 20 g/ha against DIGSA in %: 90%
  Post-emergence effect at 80 g/ha against DIGSA in %: 100%
[18]
  Post-emergence effect at 80 g/ha against LOLRI in %: 80%
[15]
  Post-emergence effect at 20 g/ha against MATIN in %: 90%
  Post-emergence effect at 80 g/ha against MATIN in %: 100%
[16]
  Post-emergence effect at 20 g/ha against PHBPU in %: 90%
  Post-emergence effect at 80 g/ha against PHBPU in %: 100%
[19]; 20 g/ha
  Post-emergence effect at 20 g/ha against POLCO in %: 80%
[19]; 80 g/ha
  Post-emergence effect at 80 g/ha against POLCO in %: 100%
[4]
  Post-emergence effect at 20 g/ha against SETVI in %: 100%
  Post-emergence effect at 80 g/ha against SETVI in %: 100%
[17]; 20 g/ha
  Post-emergence effect at 20 g/ha against VERPE in %: 90%
[17]
  Post-emergence effect at 80 g/ha against VERPE in %: 100%
[5]
  Post-emergence effect at 20 g/ha against VIOTR in %: 100%
  Post-emergence effect at 80 g/ha against VIOTR in %: 100%
[6]
  Post-emergence effect at 20 g/ha against KCHSC in %: 100%
  Post-emergence effect at 80 g/ha against KCHSC in %: 100%
[7]
  Pre-emergence effect at 20 g/ha against ABUTH in %: 90%
  Pre-emergence effect at 80 g/ha against ABUTH in %: 100%
[20]
  Pre-emergence effect at 80 g/ha against ALOMY in %: 80%
[8]
  Pre-emergence effect at 20 g/ha against AMARE in %: 100%
  Pre-emergence effect at 80 g/ha against AMARE in %: 100%
[21]; 20 g/ha
  Pre-emergence effect at 20 g/ha against AVEFA in %: 90%
[21]; 80 g/ha
  Pre-emergence effect at 80 g/ha against A VEFA in %: 100%
[9]
  Pre-emergence effect at 20 g/ha against DIGSA in %: 100%
  Pre-emergence effect at 80 g/ha against DIGSA in %: 100%
[10]; 20 g/ha
  Pre-emergence effect at 20 g/ha against ECHCG in %: 100%
[10]
  Pre-emergence effect at 80 g/ha against ECHCG in %: 100%
[22]; 20 g/ha
  Pre-emergence effect at 20 g/ha against LOLRI in %: 80%
[22]; 80 g/ha
  Pre-emergence effect at 80 g/ha against LOLRI in %: 90%
[23]; 20 g/ha
  Pre-emergence effect at 20 g/ha against MATIN in %: 100%
[23]; 80 g/ha
  Pre-emergence effect at 80 g/ha against MATIN in %: 100%
[24]; 20 g/ha
  Pre-emergence effect at 20 g/ha against PHBPU in %: 80%
[24]; 80 g/ha
  Pre-emergence effect at 80 g/ha against PHBPU in %: 100%
[11]; 20 g/ha
  Pre-emergence effect at 20 g/ha against POLCO in %: 90%
[11]
  Pre-emergence effect at 80 g/ha against POLCO in %: 100%
[12]; 20 g/ha
  Pre-emergence effect at 20 g/ha against SETVI in %: 100%
[12]
  Pre-emergence effect at 80 g/ha against SETVI in %: 100%
[25]
  Pre-emergence effect at 80 g/ha against VERPE in %: 100%
[13]
  Pre-emergence effect at 20 g/ha against VIOTR in %: 100%
  Pre-emergence effect at 80 g/ha against VIOTR in %: 100%
[14]
  Pre-emergence effect at 20 g/ha against KCHSC in %: 100%
  Pre-emergence effect at 80 g/ha against KCHSC in %: 100%
